Structures can show the parent of a compound that is named as a salt.
Target: T1, HCV polymerase (Hepatitis C virus genotype 1b, UniProt P26663)
T1 construct: a region encoding NS5B (J Virol 1991 March, 65(3), 1105-13, 544 amino acids after deletion of 47 amino acids on the C-terminal); 6xHis (C); made in house; host or cells: Escherichia coli
Test: biochemical
Design: species or system HCV BK strain
Source text: The evaluation of the HCV polymerase inhibitory activity of the compound of the present invention is explained in the following. This polymerase is an enzyme coded for by the non-structural protein region called NS5B on the genome RNA of HCV (EMBO J., 15:12-22, 1996).
Using, as a template, a cDNA clone corresponding to the full length genome RNA of HCV BK strain obtained from the blood of a patient with hepatitis C, a region encoding NS5B (J Virol 1991 March, 65(3), 1105-13, 544 amino acids after deletion of 47 amino acids on the C-terminal) was amplified by PCR. The objective gene was prepared by adding a 6 His tag {base pair encoding 6 continuous histidine (His)}to the 3′ end thereof and transformed to Escherichia coli. The Escherichia coli capable of producing the objective protein was cultured. The obtained cells were suspended in a buffer solution and crushed in a microfluidizer.
Using a synthetic primer designed based on the sequence of HCV genomic 3′ untranslated region, a DNA fragment (148 bp) containing polyU and 3′X sequence was entirely synthesized and cloned into plasmid pBluescript SK II(+) (Stratagene). The cDNA encoding full length NS5B, which was prepared in i) above, was digested with restriction enzyme KpnI to give a cDNA fragment containing the nucleotide sequence of from the restriction enzyme cleavage site to the termination codon. This cDNA fragment was inserted into the upstream of 3′ untranslated region of the DNA in pBluescript SK II(+) and ligated. The about 450 bp inserted DNA sequence was used as a template in the preparation of substrate RNA.
RNA was synthesized (37° C., 3 hr) by run-off method using this purified DNA as a template, a promoter of pBluescript SK II(+), MEGAscript RNA synthesis kit (Ambion) and T7 RNA polymerase. DNase I was added and the mixture was incubated for 1 hr. The template DNA was removed by decomposition to give a crude RNA product.
A test substance (compound of the present invention) and a reaction mixture (30 μl) having the following composition were reacted at 25° C. for 90 min.
10% Trichloroacetic acid at 4° C. and 1% sodium pyrophosphate solution (150 μl) were added to this reaction mixture to stop the reaction. The reaction mixture was left standing in ice for 15 min to insolubilize RNA. This RNA was trapped on a glass filter (Whatman GF/C and the like) upon filtration by suction. This filter was washed with a solution containing 1% trichloroacetic acid and 0.1% sodium pyrophosphate, washed with 90% ethanol and dried. A liquid scintillation cocktail (Packard) was added and the radioactivity of RNA synthesized by the enzyme reaction was measured on a liquid scintillation counter.
The HCV polymerase inhibitory activity (IC50) of the compound of the present invention was calculated from the values of radioactivity of the enzyme reaction with and without the test substance.
Reaction mixture: HCV polymerase (0.5 μg/ml) obtained in i), substrate RNA (5 μg/ml) obtained in ii), ATP (50 μM), GTP (50 μM), CTP ([…]), UTP (2 μM), [5,6-^3H]UTP (46 Ci/mmol (Amersham), 1 μCi) 20 mM Tris-HCl (pH 7.5), EDTA (1 mM), MgCl2 (5 mM), NaCl (50 mM), DTT (1 mM), BSA (0.01%)

T1 sequence (P26663 2420-2963): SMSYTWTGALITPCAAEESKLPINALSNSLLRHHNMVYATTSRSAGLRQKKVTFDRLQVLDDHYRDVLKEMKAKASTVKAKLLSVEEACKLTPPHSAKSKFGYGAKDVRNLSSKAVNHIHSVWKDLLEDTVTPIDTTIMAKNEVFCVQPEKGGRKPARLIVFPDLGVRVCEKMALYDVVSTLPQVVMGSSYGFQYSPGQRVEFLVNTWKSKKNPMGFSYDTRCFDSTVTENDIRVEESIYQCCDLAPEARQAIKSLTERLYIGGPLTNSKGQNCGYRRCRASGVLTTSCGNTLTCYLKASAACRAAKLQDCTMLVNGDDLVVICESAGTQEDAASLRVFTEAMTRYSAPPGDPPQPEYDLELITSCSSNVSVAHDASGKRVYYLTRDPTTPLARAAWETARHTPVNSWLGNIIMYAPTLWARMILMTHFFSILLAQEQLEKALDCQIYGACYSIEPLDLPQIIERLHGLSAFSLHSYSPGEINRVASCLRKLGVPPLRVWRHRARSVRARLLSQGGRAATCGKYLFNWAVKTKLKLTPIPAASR

Row | SMILES | IC50 [nM]
1 | CCN1CCN(CCN2CCn3c(c(C4CCCCC4)c4ccc(C(=O)O)cc43)-c3ccccc32)CC1 [Example 1-38, 13-cyclohexyl-5-[2-(4-ethylpiperazin-1-yl)ethyl]-6,7-dihydro-5H-benzo[5,6][1,4]diazepino[7,1-a]indole-10-carboxylic acid dihydrochloride] | < 100
2 | COC1CCN(CCN2CCn3c(c(C4CCCCC4)c4ccc(C(=O)O)cc43)-c3ccccc32)CC1 [Example 1-39, 13-cyclohexyl-5-[2-(4-methoxypiperidin-1-yl)ethyl]-6,7-dihydro-5H-benzo[5,6][1,4]diazepino[7,1-a]indole-10-carboxylic acid dihydrochloride] | < 100
3 | COCCN(C)CCN1CCn2c(c(C3CCCCC3)c3ccc(C(=O)O)cc32)-c2ccccc21 [Example 1-40, 13-cyclohexyl-5-{2-[N-(2-methoxyethyl)-N-methylamino]ethyl}-6,7-dihydro-5H-benzo[5,6][1,4]diazepino[7,1-a]indole-10-carboxylic acid dihydrochloride] | < 100
4 | O=C(O)c1ccc2c(C3CCCCC3)c3n(c2c1)CCN(CCc1ccccc1)c1ccccc1-3 [Example 1-41, 13-cyclohexyl-5-phenethyl-6,7-dihydro-5H-benzo[5,6][1,4]diazepino[7,1-a]indole-10-carboxylic acid monohydrochloride] | < 100
5 | O=C(O)c1ccc2c(C3CCCCC3)c3n(c2c1)CCN(CCN1CCC(O)CC1)c1ccccc1-3 [Example 1-42, 13-cyclohexyl-5-[2-(4-hydroxypiperidin-1-yl)ethyl]-6,7-dihydro-5H-benzo[5,6][1,4]diazepino[7,1-a]indole-10-carboxylic acid dihydrochloride] | < 100
6 | CN(C)C1CCN(C(=O)CN2CCn3c(c(C4CCCCC4)c4ccc(C(=O)O)cc43)-c3ccccc32)CC1 [Example 1-43, 13-cyclohexyl-5-[2-(4-dimethylaminopiperidin-1-yl)-2-oxoethyl]-6,7-dihydro-5H-benzo[5,6][1,4]diazepino[7,1-a]indole-10-carboxylic acid dihydrochloride] | < 100
7 | CN(C)C1CCN(CCN2CCn3c(c(C4CCCCC4)c4ccc(C(=O)O)cc43)-c3ccccc32)CC1 [Example 1-44, 13-cyclohexyl-5-[2-(4-dimethylaminopiperidin-1-yl)ethyl]-6,7-dihydro-5H-benzo[5,6][1,4]diazepino[7,1-a]indole-10-carboxylic acid trihydrochloride] | < 100
8 | O=C(O)c1ccc2c(C3CCCCC3)c3n(c2c1)CCN(CC(=O)N1CCS(=O)(=O)CC1)c1ccccc1-3 [Example 1-45, 13-cyclohexyl-5-[2-(1,1-dioxothiomorpholin-4-yl)-2-oxoethyl]-6,7-dihydro-5H-benzo[5,6][1,4]diazepino[7,1-a]indole-10-carboxylic acid monohydrochloride] | < 100
9 | CCOC(=O)N1CCN(C(=O)CN2CCn3c(c(C4CCCCC4)c4ccc(C(=O)O)cc43)-c3ccccc32)CC1 [Example 1-46, 13-cyclohexyl-5-[2-(4-ethoxycarbonylpiperazin-1-yl)-2-oxoethyl]-6,7-dihydro-5H-benzo[5,6][1,4]diazepino[7,1-a]indole-10-carboxylic acid monohydrochloride] | < 100
10 | CC(C)N1CCN(C(=O)CN2CCn3c(c(C4CCCCC4)c4ccc(C(=O)O)cc43)-c3ccccc32)CC1 [Example 1-47, 13-cyclohexyl-5-[2-(4-isopropylpiperazin-1-yl)-2-oxoethyl]-6,7-dihydro-5H-benzo[5,6][1,4]diazepino[7,1-a]indole-10-carboxylic acid dihydrochloride] | < 100
11 | CC(C)N1CCN(CCN2CCn3c(c(C4CCCCC4)c4ccc(C(=O)O)cc43)-c3ccccc32)CC1 [Example 1-48, 13-cyclohexyl-5-[2-(4-isopropylpiperazin-1-yl)ethyl]-6,7-dihydro-5H-benzo[5,6][1,4]diazepino[7,1-a]indole-10-carboxylic acid trihydrochloride] | < 100
12 | O=C(O)c1ccc2c(C3CCCCC3)c3n(c2c1)CCN(CC(=O)N1CCCOCC1)c1ccccc1-3 [Example 1-49, 13-cyclohexyl-5-[2-(1,4-oxazepan-4-yl)-2-oxoethyl]-6,7-dihydro-5H-benzo[5,6][1,4]diazepino[7,1-a]indole-10-carboxylic acid monohydrochloride] | < 100
13 | CN1CCN(C(=O)CN2CCn3c(c(C4CCCCC4)c4ccc(C(=O)O)cc43)-c3ccccc32)CC1 [Example 1-50, 13-cyclohexyl-5-[2-(4-methylpiperazin-1-yl)-2-oxoethyl]-6,7-dihydro-5H-benzo[5,6][1,4]diazepino[7,1-a]indole-10-carboxylic acid dihydrochloride] | < 100
14 | CC(=O)N1CCN(C(=O)CN2CCn3c(c(C4CCCCC4)c4ccc(C(=O)O)cc43)-c3ccccc32)CC1 [Example 1-51, 5-[2-(4-acetylpiperazin-1-yl)-2-oxoethyl]-13-cyclohexyl-6,7-dihydro-5H-benzo[5,6][1,4]diazepino[7,1-a]indole-10-carboxylic acid monohydrochloride] | < 100
15 | CN1CCN(CCN2CCn3c(c(C4CCCCC4)c4ccc(C(=O)O)cc43)-c3ccccc32)CC1 [Example 1-52, 13-cyclohexyl-5-[2-(4-methylpiperazin-1-yl)ethyl]-6,7-dihydro-5H-benzo[5,6][1,4]diazepino[7,1-a]indole-10-carboxylic acid trihydrochloride] | < 100
16 | CN1CCCN(CCN2CCn3c(c(C4CCCCC4)c4ccc(C(=O)O)cc43)-c3ccccc32)CC1 [Example 1-53, 13-cyclohexyl-5-[2-(4-methyl-1,4-diazepan-1-yl)ethyl]-6,7-dihydro-5H-benzo[5,6][1,4]diazepino[7,1-a]indole-10-carboxylic acid trihydrochloride] | < 100
17 | CN1CCCN(C(=O)CN2CCn3c(c(C4CCCCC4)c4ccc(C(=O)O)cc43)-c3ccccc32)CC1 [Example 1-54, 13-cyclohexyl-5-[2-(4-methyl-1,4-diazepan-1-yl)-2-oxoethyl]-6,7-dihydro-5H-benzo[5,6][1,4]diazepino[7,1-a]indole-10-carboxylic acid dihydrochloride] | < 100
18 | CCN1CCN(C(=O)CN2CCn3c(c(C4CCCCC4)c4ccc(C(N)=O)cc43)-c3ccccc32)CC1 [Example 1-55, 13-cyclohexyl-5-[2-(4-ethylpiperazin-1-yl)-2-oxoethyl]-6,7-dihydro-5H-benzo[5,6][1,4]diazepino[7,1-a]indole-10-carboxamide] | < 100
19 | O=C(O)c1ccc2c(C3CCCCC3)c3n(c2c1)CCN(CC(=O)N1CCCC1)c1ccccc1-3 [Example 1-56, 13-cyclohexyl-5-[2-oxo-2-(pyrrolidin-1-yl)ethyl]-6,7-dihydro-5H-benzo[5,6][1,4]diazepino[7,1-a]indole-10-carboxylic acid monohydrochloride] | < 100
20 | O=C(O)c1ccc2c(C3CCCCC3)c3n(c2c1)CCN(CCN1CCCC1)c1ccccc1-3 [Example 1-57, 13-cyclohexyl-5-[2-(pyrrolidin-1-yl)ethyl]-6,7-dihydro-5H-benzo[5,6][1,4]diazepino[7,1-a]indole-10-carboxylic acid dihydrochloride] | < 100
